These results are taken from ChEMBL document CHEMBL5442219.

The inhibition is the relative decrease from the control value, in per cent.

What all share (conditions): Compound concentration 10 µM
Assay [1] concerns the target T1, 5-hydroxytryptamine receptor 2C (Homo sapiens) (UniProt P28335).
T1 sequence (whole entry): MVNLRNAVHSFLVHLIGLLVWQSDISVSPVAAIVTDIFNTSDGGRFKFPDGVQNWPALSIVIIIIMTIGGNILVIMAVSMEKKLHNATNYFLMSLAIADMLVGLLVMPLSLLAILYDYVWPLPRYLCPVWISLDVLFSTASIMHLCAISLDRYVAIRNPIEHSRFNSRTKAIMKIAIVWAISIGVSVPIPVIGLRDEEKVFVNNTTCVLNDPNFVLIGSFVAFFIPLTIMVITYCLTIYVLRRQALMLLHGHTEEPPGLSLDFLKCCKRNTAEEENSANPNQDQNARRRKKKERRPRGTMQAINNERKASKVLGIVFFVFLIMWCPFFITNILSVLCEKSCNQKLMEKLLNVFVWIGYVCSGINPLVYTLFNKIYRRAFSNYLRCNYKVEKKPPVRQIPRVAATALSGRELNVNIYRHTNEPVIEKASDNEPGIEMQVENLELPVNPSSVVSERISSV
Description: PDSP Primary Binding target: HTR2C - Compounds are tested at 10 uM concentration, plate are incubated at room temperature in the dark for 90 minutes. Reaction are stopped by vacuum filtration onto 0.3% polyethyleneimine soaked filter mats using Filtermate harvester. Scintilation cocktail is then melted onto microwave-dried filters on a hot plate and the radio activity is counted in Microbia counter.

Assay [2] concerns the target 5-hydroxytryptamine receptor 1E (Homo sapiens) (UniProt P28566).
Description: PDSP Primary Binding target: HTR1E - Compounds are tested at 10 uM concentration, plate are incubated at room temperature in the dark for 90 minutes. Reaction are stopped by vacuum filtration onto 0.3% polyethyleneimine soaked filter mats using Filtermate harvester. Scintilation cocktail is then melted onto microwave-dried filters on a hot plate and the radio activity is counted in Microbia counter.
Assay [3] concerns the target 5-hydroxytryptamine receptor 6 (Homo sapiens) (UniProt P50406).
Description: PDSP Primary Binding target: HTR6 - Compounds are tested at 10 uM concentration, plate are incubated at room temperature in the dark for 90 minutes. Reaction are stopped by vacuum filtration onto 0.3% polyethyleneimine soaked filter mats using Filtermate harvester. Scintilation cocktail is then melted onto microwave-dried filters on a hot plate and the radio activity is counted in Microbia counter.
Assay [4] concerns the target T2, Alpha-1A adrenergic receptor (Homo sapiens) (UniProt P35348).
T2 sequence (whole entry): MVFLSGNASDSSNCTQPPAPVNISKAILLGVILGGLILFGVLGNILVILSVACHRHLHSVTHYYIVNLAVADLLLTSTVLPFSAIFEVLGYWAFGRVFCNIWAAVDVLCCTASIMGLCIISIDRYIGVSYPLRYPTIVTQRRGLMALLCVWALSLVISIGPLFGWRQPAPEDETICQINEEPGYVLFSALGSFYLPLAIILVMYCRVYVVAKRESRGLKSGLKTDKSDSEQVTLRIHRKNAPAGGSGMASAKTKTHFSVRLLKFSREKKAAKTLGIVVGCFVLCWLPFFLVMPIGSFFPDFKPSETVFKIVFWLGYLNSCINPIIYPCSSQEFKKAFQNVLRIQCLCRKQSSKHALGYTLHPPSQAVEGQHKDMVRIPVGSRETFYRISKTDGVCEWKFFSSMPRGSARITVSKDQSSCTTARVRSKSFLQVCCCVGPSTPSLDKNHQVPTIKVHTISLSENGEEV
Description: PDSP Primary Binding target: ADRA1A - Compounds are tested at 10 uM concentration, plate are incubated at room temperature in the dark for 90 minutes. Reaction are stopped by vacuum filtration onto 0.3% polyethyleneimine soaked filter mats using Filtermate harvester. Scintilation cocktail is then melted onto microwave-dried filters on a hot plate and the radio activity is counted in Microbia counter.

For assay [5], the target named is Beta-3 adrenergic receptor (Homo sapiens) (UniProt P13945).
Description: PDSP Primary Binding target: ADRB3 - Compounds are tested at 10 uM concentration, plate are incubated at room temperature in the dark for 90 minutes. Reaction are stopped by vacuum filtration onto 0.3% polyethyleneimine soaked filter mats using Filtermate harvester. Scintilation cocktail is then melted onto microwave-dried filters on a hot plate and the radio activity is counted in Microbia counter.
Assay [6] has as its target Sigma intracellular receptor 2 (Homo sapiens) (UniProt Q5BJF2).
Description: PDSP Primary Binding target: TMEM97 - Compounds are tested at 10 uM concentration, plate are incubated at room temperature in the dark for 90 minutes. Reaction are stopped by vacuum filtration onto 0.3% polyethyleneimine soaked filter mats using Filtermate harvester. Scintilation cocktail is then melted onto microwave-dried filters on a hot plate and the radio activity is counted in Microbia counter.
The target in assay [7] is T3, 5-hydroxytryptamine receptor 3A (Homo sapiens) (UniProt P46098).
T3 sequence (whole entry): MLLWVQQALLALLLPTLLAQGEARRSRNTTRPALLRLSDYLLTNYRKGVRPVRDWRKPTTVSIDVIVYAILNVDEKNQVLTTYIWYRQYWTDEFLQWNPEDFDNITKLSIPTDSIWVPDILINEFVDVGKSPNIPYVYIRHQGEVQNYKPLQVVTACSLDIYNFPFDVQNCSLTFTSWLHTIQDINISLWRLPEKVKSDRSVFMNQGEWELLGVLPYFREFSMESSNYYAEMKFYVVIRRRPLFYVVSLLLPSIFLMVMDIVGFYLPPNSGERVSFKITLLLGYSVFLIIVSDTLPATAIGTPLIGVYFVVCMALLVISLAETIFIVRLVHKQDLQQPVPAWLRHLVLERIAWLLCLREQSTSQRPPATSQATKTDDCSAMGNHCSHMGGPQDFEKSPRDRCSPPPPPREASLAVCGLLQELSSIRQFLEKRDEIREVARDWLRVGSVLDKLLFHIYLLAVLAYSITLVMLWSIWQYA
Description: PDSP Primary Binding target: HTR3A - Compounds are tested at 10 uM concentration, plate are incubated at room temperature in the dark for 90 minutes. Reaction are stopped by vacuum filtration onto 0.3% polyethyleneimine soaked filter mats using Filtermate harvester. Scintilation cocktail is then melted onto microwave-dried filters on a hot plate and the radio activity is counted in Microbia counter.

Assay [8] addresses T4, Muscarinic acetylcholine receptor M5 (Homo sapiens) (UniProt P08912).
T4 sequence (whole entry): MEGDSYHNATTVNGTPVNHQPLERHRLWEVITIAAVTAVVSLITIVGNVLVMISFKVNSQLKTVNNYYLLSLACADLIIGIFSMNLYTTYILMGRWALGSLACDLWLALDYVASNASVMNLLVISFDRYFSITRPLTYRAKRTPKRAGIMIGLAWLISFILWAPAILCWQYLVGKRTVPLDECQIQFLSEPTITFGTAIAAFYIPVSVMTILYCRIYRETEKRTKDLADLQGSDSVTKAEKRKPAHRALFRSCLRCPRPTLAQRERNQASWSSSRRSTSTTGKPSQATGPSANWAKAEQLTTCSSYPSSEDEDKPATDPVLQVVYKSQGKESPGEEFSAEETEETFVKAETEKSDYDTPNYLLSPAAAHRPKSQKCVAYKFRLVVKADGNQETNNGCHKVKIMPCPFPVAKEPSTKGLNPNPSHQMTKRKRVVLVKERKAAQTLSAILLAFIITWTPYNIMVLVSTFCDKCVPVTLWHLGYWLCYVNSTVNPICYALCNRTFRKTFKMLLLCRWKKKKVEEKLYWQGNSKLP
Description: PDSP Primary Binding target: CHRM5 - Compounds are tested at 10 uM concentration, plate are incubated at room temperature in the dark for 90 minutes. Reaction are stopped by vacuum filtration onto 0.3% polyethyleneimine soaked filter mats using Filtermate harvester. Scintilation cocktail is then melted onto microwave-dried filters on a hot plate and the radio activity is counted in Microbia counter.

Assay [9] concerns the target Sodium-dependent noradrenaline transporter (Homo sapiens) (UniProt P23975).
Description: PDSP Primary Binding target: SLC6A2 - Compounds are tested at 10 uM concentration, plate are incubated at room temperature in the dark for 90 minutes. Reaction are stopped by vacuum filtration onto 0.3% polyethyleneimine soaked filter mats using Filtermate harvester. Scintilation cocktail is then melted onto microwave-dried filters on a hot plate and the radio activity is counted in Microbia counter.
Assay [10] addresses 5-hydroxytryptamine receptor 7 (Homo sapiens) (UniProt P34969).
Description: PDSP Primary Binding target: HTR7 - Compounds are tested at 10 uM concentration, plate are incubated at room temperature in the dark for 90 minutes. Reaction are stopped by vacuum filtration onto 0.3% polyethyleneimine soaked filter mats using Filtermate harvester. Scintilation cocktail is then melted onto microwave-dried filters on a hot plate and the radio activity is counted in Microbia counter.
In assay [11] the target is T5, Alpha-2A adrenergic receptor (Homo sapiens) (UniProt P08913).
T5 sequence (whole entry): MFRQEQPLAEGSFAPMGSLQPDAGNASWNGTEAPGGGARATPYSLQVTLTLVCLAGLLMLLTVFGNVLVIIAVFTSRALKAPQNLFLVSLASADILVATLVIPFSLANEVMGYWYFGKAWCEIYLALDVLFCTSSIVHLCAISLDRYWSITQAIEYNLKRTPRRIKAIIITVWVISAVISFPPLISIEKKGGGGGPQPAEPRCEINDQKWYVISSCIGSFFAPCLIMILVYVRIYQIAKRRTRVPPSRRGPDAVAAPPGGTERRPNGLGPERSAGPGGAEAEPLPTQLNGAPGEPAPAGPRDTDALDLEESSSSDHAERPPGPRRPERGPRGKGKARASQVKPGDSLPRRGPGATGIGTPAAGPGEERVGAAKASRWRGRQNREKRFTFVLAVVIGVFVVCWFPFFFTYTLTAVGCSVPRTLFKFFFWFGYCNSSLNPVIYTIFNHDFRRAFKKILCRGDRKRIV
Description: PDSP Primary Binding target: ADRA2A - Compounds are tested at 10 uM concentration, plate are incubated at room temperature in the dark for 90 minutes. Reaction are stopped by vacuum filtration onto 0.3% polyethyleneimine soaked filter mats using Filtermate harvester. Scintilation cocktail is then melted onto microwave-dried filters on a hot plate and the radio activity is counted in Microbia counter.

In assay [12] the target is Sodium-dependent serotonin transporter (Homo sapiens) (UniProt P31645).
Chain of Sodium-dependent serotonin transporter (Homo sapiens) (P31645 whole entry, looked up): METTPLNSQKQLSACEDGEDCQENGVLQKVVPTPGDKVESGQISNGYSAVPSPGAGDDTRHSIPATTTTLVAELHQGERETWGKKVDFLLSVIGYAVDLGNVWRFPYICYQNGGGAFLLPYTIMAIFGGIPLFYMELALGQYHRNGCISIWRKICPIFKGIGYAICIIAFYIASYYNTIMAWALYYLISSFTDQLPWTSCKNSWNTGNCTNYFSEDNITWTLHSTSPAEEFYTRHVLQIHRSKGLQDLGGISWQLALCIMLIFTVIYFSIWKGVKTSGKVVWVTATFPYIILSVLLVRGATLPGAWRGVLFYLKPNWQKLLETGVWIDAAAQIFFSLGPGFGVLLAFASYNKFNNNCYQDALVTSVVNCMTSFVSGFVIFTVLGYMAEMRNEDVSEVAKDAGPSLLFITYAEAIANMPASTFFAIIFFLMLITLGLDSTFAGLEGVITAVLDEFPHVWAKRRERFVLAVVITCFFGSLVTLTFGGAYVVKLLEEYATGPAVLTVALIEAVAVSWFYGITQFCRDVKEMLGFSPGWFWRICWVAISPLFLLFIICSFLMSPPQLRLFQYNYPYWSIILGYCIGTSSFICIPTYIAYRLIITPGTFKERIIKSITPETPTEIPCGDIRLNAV
Description: PDSP Primary Binding target: SLC6A4 - Compounds are tested at 10 uM concentration, plate are incubated at room temperature in the dark for 90 minutes. Reaction are stopped by vacuum filtration onto 0.3% polyethyleneimine soaked filter mats using Filtermate harvester. Scintilation cocktail is then melted onto microwave-dried filters on a hot plate and the radio activity is counted in Microbia counter.

Chain of Sigma intracellular receptor 2 (Homo sapiens) (Q5BJF2 whole entry): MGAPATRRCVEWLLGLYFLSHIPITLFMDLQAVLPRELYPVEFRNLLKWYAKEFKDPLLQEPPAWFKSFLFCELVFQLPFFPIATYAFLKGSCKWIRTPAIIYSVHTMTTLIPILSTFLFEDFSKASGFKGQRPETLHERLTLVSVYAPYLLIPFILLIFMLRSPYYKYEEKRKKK
Chain of 5-hydroxytryptamine receptor 7 (Homo sapiens) (P34969 whole entry): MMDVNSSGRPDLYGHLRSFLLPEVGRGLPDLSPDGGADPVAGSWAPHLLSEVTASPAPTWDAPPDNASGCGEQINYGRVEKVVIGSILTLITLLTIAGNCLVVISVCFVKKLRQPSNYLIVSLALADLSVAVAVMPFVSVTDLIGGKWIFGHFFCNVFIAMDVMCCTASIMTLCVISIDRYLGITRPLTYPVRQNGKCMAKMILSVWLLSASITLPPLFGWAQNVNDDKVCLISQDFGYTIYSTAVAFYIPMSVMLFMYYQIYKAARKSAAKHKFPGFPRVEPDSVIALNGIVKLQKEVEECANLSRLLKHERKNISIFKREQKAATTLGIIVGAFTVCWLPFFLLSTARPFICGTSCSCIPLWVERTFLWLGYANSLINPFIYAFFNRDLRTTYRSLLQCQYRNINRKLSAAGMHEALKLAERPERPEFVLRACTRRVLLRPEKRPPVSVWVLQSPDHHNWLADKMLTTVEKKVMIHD
Chain of 5-hydroxytryptamine receptor 1E (Homo sapiens) (P28566 whole entry): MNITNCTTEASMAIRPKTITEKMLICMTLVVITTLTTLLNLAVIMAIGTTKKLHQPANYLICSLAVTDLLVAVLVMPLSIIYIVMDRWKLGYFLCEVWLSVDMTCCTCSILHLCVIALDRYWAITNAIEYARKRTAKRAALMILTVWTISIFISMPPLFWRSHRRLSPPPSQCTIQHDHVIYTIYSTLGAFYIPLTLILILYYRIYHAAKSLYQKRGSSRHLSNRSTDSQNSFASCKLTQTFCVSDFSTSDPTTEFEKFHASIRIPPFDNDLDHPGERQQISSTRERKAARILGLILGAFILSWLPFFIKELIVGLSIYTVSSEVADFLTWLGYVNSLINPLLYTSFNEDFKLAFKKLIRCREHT
Chain of Beta-3 adrenergic receptor (Homo sapiens) (P13945 whole entry, looked up): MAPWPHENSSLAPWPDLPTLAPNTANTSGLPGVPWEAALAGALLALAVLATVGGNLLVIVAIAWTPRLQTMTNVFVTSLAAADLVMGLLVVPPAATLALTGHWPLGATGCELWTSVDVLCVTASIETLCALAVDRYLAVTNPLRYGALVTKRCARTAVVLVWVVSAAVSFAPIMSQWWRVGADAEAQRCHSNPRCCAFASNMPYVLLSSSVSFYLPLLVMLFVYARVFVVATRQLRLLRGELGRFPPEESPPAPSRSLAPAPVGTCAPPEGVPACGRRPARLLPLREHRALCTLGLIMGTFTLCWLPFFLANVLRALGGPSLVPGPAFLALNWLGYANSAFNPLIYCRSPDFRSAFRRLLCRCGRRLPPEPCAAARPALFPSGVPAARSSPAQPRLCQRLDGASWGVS
Chain of Sodium-dependent noradrenaline transporter (Homo sapiens) (P23975 whole entry): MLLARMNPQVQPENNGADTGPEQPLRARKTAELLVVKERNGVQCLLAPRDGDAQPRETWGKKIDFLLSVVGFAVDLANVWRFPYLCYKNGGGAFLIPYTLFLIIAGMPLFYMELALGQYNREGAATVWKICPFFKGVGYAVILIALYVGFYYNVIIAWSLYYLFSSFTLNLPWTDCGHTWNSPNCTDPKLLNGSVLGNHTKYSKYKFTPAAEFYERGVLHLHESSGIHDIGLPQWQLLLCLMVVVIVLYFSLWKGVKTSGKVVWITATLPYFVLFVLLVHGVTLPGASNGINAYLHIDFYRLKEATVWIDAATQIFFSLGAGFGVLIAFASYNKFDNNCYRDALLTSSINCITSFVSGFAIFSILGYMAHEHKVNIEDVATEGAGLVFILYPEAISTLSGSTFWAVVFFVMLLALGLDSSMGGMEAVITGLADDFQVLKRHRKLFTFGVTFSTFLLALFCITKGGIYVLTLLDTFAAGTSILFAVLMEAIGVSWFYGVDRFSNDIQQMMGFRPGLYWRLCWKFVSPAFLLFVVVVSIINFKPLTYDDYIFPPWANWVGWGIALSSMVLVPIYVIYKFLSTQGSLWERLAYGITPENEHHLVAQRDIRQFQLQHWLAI
Chain of 5-hydroxytryptamine receptor 6 (Homo sapiens) (P50406 whole entry): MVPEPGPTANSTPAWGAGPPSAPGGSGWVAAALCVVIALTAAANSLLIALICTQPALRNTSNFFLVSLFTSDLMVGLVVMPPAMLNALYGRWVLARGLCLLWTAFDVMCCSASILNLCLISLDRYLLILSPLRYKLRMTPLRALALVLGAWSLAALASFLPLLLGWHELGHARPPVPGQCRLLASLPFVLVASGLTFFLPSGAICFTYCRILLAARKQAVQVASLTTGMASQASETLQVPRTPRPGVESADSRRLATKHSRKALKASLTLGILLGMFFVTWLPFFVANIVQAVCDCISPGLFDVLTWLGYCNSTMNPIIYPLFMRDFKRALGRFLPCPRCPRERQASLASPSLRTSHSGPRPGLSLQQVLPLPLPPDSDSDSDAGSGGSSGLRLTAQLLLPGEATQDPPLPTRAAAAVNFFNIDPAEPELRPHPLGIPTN

Take `O=C(O)CC/C=C\C[C@@H]1CO[C@H](c2ccccc2Cl)O[C@@H]1c1ccccc1O`: the inhibition was -5.63% in [1]; -6.67% in assay [2]; -3.05% in assay [3]; -9.2% in assay [4]; 29.5% in assay [5].
Regarding `Cc1c(OCc2cccc(-c3ccc(C(=O)O)cc3)c2)cc2c(c1C)C(=O)C(C1CCCC1)C2` (stereo unspecified), the inhibition in assay [1] was 6.16%; in assay [2], 6.04%; in [3], -3.02%; in assay [4], 48.4%; in [6], -3.24%; in [7], -4.07%. In addition, the inhibition in assay [5] was 76.5%.
Take `Cc1nc(C(=O)N2CCC[C@H]2Cc2nnc(-c3ccccc3)o2)c(-c2ccccc2F)s1`: the inhibition was 4.37% in assay [1]; -8.85% in assay [2]; 17.4% in assay [3]; 29.8% in assay [8]; 1.08% in assay [4]; 12.9% in [6]. For the same molecule, the inhibition in [7] was -1.8%; in assay [5], 23.9%.
Consider `N#Cc1ccc2[nH]cc(CCCCN3CCN(c4ccc5oc(C(N)=O)cc5c4)CC3)c2c1`, for which the inhibition was 43.3% in assay [1]; 21.2% in assay [2]; 30.3% in [3]; 98.1% in [9]; 30.6% in assay [8]; 95.5% in assay [4]. Also, the inhibition in assay [10] was 82.4%; in [6], 80.3%; in assay [7], 46.7%; in assay [11], 70%; in assay [12] it was 96%.
As for `Cc1ccccc1C(=O)Nc1ccc(C(=O)N2CCCC(O)c3cc(Cl)ccc32)c(C)c1` (stereo unspecified), the inhibition was 78.3% in assay [1]; 0.51% in assay [2]; 1.21% in assay [3]; 20.8% in assay [9]; 4.97% in assay [8]; 8.56% in assay [4]. The inhibition in assay [10] was 8.44%; in assay [6], 91.8%; in assay [7], -5.18%; in [11], 33.8%; in assay [12], 10.7%.
Turning to `O=C(c1cc2c(cc1F)OC(c1ccc(F)cc1)(c1ccc(Cl)cc1Cl)O2)N1CCOCC1` (stereo unspecified), the inhibition is 73.4% in assay [1]; 19.9% in assay [2]; -8.59% in [3]; 52% in [9]; -6.56% in assay [8]; 14.6% in [4]. The inhibition in [10] is 5.01%; in assay [6], 72.4%; in assay [7] it was 1.36%; in assay [11], 18.1%; in assay [12], 15.9%.
Take `Cc1nc(-c2ccc(-c3ccc(C(=O)N4CCc5cc6c(cc54)C4(CCN(C)CC4)CO6)cc3)c(C)c2)no1`: the inhibition in assay [1] is 85.3%; in [2] it was 0.78%; in assay [3], -6.79%; in [9], 69.2%; in assay [8], 93.6%; in [4], 27.9%. In addition, the inhibition in assay [10] was 25.5%; in assay [6], 95.4%; in [7], 43.9%; in assay [11], 73%; in [12], 41%.
For the molecule `Cc1nc2sccn2c(=O)c1CCN1CCC(=C(c2ccc(F)cc2)c2ccc(F)cc2)CC1`, the inhibition in assay [1] was 97.8%; in assay [2], 80.8%; in assay [3], 98.1%; in assay [9], 53.7%; in [8], -0.02%; in assay [4] it was 96.8%. Further, the inhibition is 90.2% in assay [10]; 98.7% in [6]; 4.51% in assay [7]; 98.8% in [11]; 80.8% in assay [12].
Take `CN1CC(=O)N=C1NC(=O)Nc1cccc(Cl)c1`: the inhibition in assay [1] was 5.25%; in assay [2] it was 7.82%; in [3], -0.6%; in assay [9], 9.52%; in assay [8], 6.05%; in assay [4], 7.79%. In addition, the inhibition in assay [10] is 0.17%; in assay [6] it was 0.02%; in [7], -5.43%; in [11], 3.42%; in assay [12], -8.91%.
For `CC(C)C[C@H](NC(=O)N1CCCCCC1)C(=O)N[C@H](Cc1cn(C)c2ccccc12)C(=O)N[C@H](Cc1ccccn1)C(=O)O`, the inhibition in [4] is 14.1%; in assay [6], 9.3%; in assay [7] it was -9.08%; in assay [11], -6.57%; in [5], -0.31%.
Regarding `Cc1cc(C)cc(C(=O)N(C)[C@H](Cc2ccc(-c3ccccc3)cc2)C(=O)N[C@@H](Cc2c[nH]c3ccccc23)C(=O)O)c1`, the inhibition in assay [4] was 22.3%; in assay [11] it was -8.09%; in assay [5], 34.4%.
As for `C[C@@H](N)Cc1c[nH]cn1`, the inhibition was 5.48% in [1]; 14.9% in assay [2]; 2.58% in assay [3]; -7.81% in assay [9]; -5.67% in assay [8]; 8.76% in [4]. Moreover, the inhibition was 3.45% in assay [10]; 20.2% in assay [6]; 5.88% in [7]; 8.47% in [11]; 6.49% in assay [12].
Consider `S=C(NCCCc1c[nH]cn1)NCCCN(Cc1ccc(Cl)c(Cl)c1)c1ccc(Br)cn1`, for which the inhibition is 100% in assay [1]; 7.46% in [2]; 74% in assay [3]; 94.1% in assay [9]; 87.6% in [8]; 84.5% in assay [4]. Also, the inhibition in [10] was 74.9%; in [6], 97.7%; in assay [7] it was 33.5%; in [11] it was 97.5%; in assay [12] it was 95%.
